Test [1] concerns THP-1. In words: Inhibition of CCL5 induced chemotaxis in THP-1 cells. It is filed as functional, cell-based. Particulars: Homo sapiens.
In test [2] the target is T1, C-C chemokine receptor type 1 (Homo sapiens, UniProt P32246).
T1 sequence (P32246 whole entry): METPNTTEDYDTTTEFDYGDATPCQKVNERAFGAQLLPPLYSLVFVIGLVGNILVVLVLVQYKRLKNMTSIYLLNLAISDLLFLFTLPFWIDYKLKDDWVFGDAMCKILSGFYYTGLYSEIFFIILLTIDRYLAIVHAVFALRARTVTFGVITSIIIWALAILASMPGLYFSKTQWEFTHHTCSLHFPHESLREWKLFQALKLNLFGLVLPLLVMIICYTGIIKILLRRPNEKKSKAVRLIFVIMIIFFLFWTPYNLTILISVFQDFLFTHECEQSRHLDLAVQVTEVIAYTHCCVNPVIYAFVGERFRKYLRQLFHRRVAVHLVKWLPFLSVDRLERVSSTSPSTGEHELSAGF
The test can be described thus: Inhibition of CCL3 binding to C-C chemokine receptor type 1.

Another test has as its target T2, Renin (Rattus norvegicus, UniProt P08424).
T2 sequence (P08424 whole entry): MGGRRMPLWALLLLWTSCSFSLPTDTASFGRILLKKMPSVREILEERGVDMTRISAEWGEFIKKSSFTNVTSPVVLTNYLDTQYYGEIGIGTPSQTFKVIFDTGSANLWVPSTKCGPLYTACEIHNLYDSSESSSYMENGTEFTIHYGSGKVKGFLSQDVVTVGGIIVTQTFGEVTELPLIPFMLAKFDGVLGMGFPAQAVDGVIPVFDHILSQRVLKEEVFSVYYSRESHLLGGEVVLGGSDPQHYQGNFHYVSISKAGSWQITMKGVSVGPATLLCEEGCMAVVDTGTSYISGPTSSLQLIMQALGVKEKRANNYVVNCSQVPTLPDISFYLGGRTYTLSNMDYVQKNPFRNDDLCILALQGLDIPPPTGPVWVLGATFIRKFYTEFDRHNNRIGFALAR
In words: Inhibitory activity of compound against renin was determined.

Test [3] has as its system THP-1. In words: (§1) Inhibition of CCL3 induced chemotaxis in THP-1 cells; inactive at a concentration of 25 uM. Format: functional, cell-based. Particulars: Homo sapiens.
Test [4] relates to THP-1. In words: Inhibition of CCL3 induced chemotaxis in THP-1 cells. Format: functional, cell-based. The note with it: Homo sapiens.
In test [5] the test system is THP-1. The description is as §1. Format: functional. Particulars: Homo sapiens.

Molecules are shown by their SMILES.

One may read the IC50 as the concentration that inhibits the measured activity by half. A low value points to greater potency in that assay. In the case of `C=C(Cl)C[C@H](C[C@H](O)[C@H](CC1CCCCC1)NC(=O)c1cc2cc(Cl)ccc2[nH]1)C(=O)NC`, the half-inhibitory concentration (IC50) in the test on THP-1 [1] was more than 25000 nM; in test [2], more than 32 µM; at Renin, 41 nM.
For the compound `CNC(=O)[C@H](CC(C)C)C[C@@H](O)[C@@H](CC1CCCCC1)NC(=O)c1cnc2ccccc2c1`, in the test on THP-1 [3], the IC50 is less than 50 µM.
Same read-out and setting: the same measure for `CNC(=O)[C@H](CC(C)C)C[C@@H](O)[C@H](CC1CCCCC1)NC(=O)c1cnc2ccccc2c1`: more than 25 µM.
`CNC(=O)[C@@H](CC(C)C)C[C@H](O)[C@H](CC1CCCCC1)NC(=O)c1cnc2ccccc2c1`: the values for the IC50 (in the test on THP-1 [4]; in test [2]) were 12 µM and 30 µM, respectively.
As to `CNC(=O)[C@H](CC(C)C)C[C@H](O)[C@H](CC(C)C)NC(=O)c1cnc2ccccc2c1`, the IC50 in test [2] was determined as 11.8 µM. In other words, the double-digit micromolar range.
As to `CNC(=O)[C@@H](CC(C)C)C[C@H](O)[C@@H](CC1CCCCC1)NC(=O)c1cnc2ccccc2c1`, in the test with THP-1 [3], the IC50 was less than 50 µM.
The inhibition is the percentage by which the read-out fell short of the control. A high value points to a response far below the control. As to `CNC(=O)[C@H](CC(C)C)C[C@H](O)[C@@H](CC1CCCCC1)NC(=O)c1cnc2ccccc2c1`, the inhibition at 25 µM in the test on THP-1 [5] is less than 50%.
As to `CC(C)C[C@H](C[C@H](O)[C@H](CC1CCCCC1)NC(=O)c1cnc2ccccc2c1)C(N)=O`, the IC50 was determined as 6.3 µM in the test with THP-1 [4] and 8 µM in test [2].
Consider `CNC(=O)[C@@H](CC(C)C)C[C@@H](O)[C@H](CC1CCCCC1)NC(=O)c1cnc2ccccc2c1`, for which half-maximal inhibition in the test on THP-1 [4] (IC50) required 7.7 µM. This counts as single-digit micromolar.
Take `CNC(=O)[C@H](CC(C)C)C[C@H](O)[C@H](CC1CCCCC1)NC(=O)c1cnc2ccccc2c1`: the IC50 in the test with THP-1 [1] is 630 nM; in test [2], 2.3 µM; at Renin, more than 10000 nM.
`CNC(=O)[C@H](CC(C)C)C[C@H](O)[C@H](Cc1ccccc1)NC(=O)c1cnc2ccccc2c1` showed an IC50 in test [2] of 0.65 µM.
In the test with THP-1 [3], `CNC(=O)[C@H](CC(C)C)C[C@H](O)[C@H](CC1CCCCC1)NS(=O)(=O)c1cnc2ccccc2c1` showed an IC50 of less than 50 µM.
Turning to `CNC(=O)[C@@H](CC(C)C)C[C@@H](O)[C@@H](CC1CCCCC1)NC(=O)c1cnc2ccccc2c1`, the IC50 is less than 50 µM with THP-1 [3] and 15 µM in test [2].
`CC[C@H](C)[C@H](NC(=O)c1cnc2ccccc2c1)[C@@H](O)C[C@@H](CC(C)C)C(=O)NC`: the IC50 with THP-1 [3] was less than 50 µM.
As to `CC(C)C[C@H](C[C@H](O)[C@H](CC1CCCCC1)NC(=O)c1cnc2ccccc2c1)C(=O)N(C)C`, in the test on THP-1 [3], the IC50 is less than 50 µM.

The values above are taken from ChEMBL document CHEMBL1149227, “The discovery of structurally novel CCR1 antagonists derived from a hydroxyethylene peptide isostere template” (Bioorg Med Chem Lett, 2004).
